# Measurements reported in PMC5711494, “Sterol methyltransferase a target for anti-amoeba therapy: towards transition state analog and suicide substrate drug design” (Journal of Lipid Research, 2017).
# Entries after “also recorded” stand apart in the source; their conditions may differ.
# What was measured:
# [1] = system: Acanthamoeba castellanii trophozoites (strain ATCC 30010); assay: Ac trophozoite growth inhibition and minimum amoebicidal concentration (trypan blue exclusion); type: cell-based; conditions: 48 h incubation
# Protocol: Ac strain ATCC 30010 was inoculated (1 × 10^4 cells/ml) into tissue culture T-25 ml flasks, prepared with ATTC media 712 and cultured axenically in 5 ml medium at 25°C. Continuous cultures populated by trophozoites ([…]; the remaining cells were cysts) was maintained by sub-culturing 4–5 day growth arrested cells (1 × 10^6 cells/ml) into fresh medium. Steroidal inhibitor and azole susceptibility assays were performed in 24-well (4 × 6) microtiter plates (3 ml total). Trophozoite assay conditions and preparation of stock solutions made to 1 μg/10 μl and 1 μg/100 μl in DMSO through serial dilution to achieve final inhibitor concentrations of 64, 32, 16, 8, 4, 2, 1, 0.5, 0.25, 0.125, 0.0625, and 0.03125 µg/ml in 1% DMSO as reported previously for voriconazole incubated with Ac ([25]). Growth curves to evaluate treated trophozoites were initiated with 1 × 10^6 cells/ml and incubated for 48 h. Cell number was calculated with the use of a hemocytometer. The percentage of viable trophozoites following exposure to different concentrations of inhibitors was determined by the standard trypan blue exclusion method. Cells stained blue were considered nonviable. […] The IC50 of inhibitors against trophozoite growth was evaluated using GraphPad Prism with default setting (GraphPad Software Inc., CA).
# Ac28-SMT = assay: Substrate kinetics and product analysis with recombinant Ac28-SMT; type: biochemical, Acanthamoeba castellanii; conditions: incubated with SAM cosubstrate
# Protocol: The SMT constructs were transformed into competent BL21(DE3) cells and transformants selected against 100 µg/ml ampicillin. Expression of the SMT constructs and partial purification of the recombinant proteins followed the procedure described previously ([19]). […] In one tube, cells were induced by addition of isopropyl thio-galactoside at a final concentration of 1 mM and in the other tube, were un-induced. Cells were harvested 2 and 4 h after induction and an equal number of cells (as calculated by OD @600 nm) from induced (+) and un-induced (−) cultures were boiled with 1X Laemmli’s buffer and analyzed by SDS-PAGE (12%). Gel was stained with Coomassie Brilliant Blue (0.2%) to establish the molecular weight and purity of the expressed protein. Total protein concentrations were determined by Bradford dye-binding procedure with bovine γ-globulin as standard. To determine the catalytic activity of the recombinant proteins, enzyme assays were carried out using soluble bacterial extract (100,000 g fraction) in 9 ml test tubes containing a total of 600 µl assay volume for 45 min (initial velocity conditions). The assay buffer contained 20 mM phosphate buffer in 5% (v/v) glycerol at pH 7.5, sterol acceptor emulsified in 12 µl Tween 80 (1.2 g/l), and the substrate tested over the concentration range 5 to 150 µM against 1.2 mg of total protein. The reaction was initiated by the addition of saturating levels of [methyl-^3H3]SAM, 0.9 µCi, at 150 µM. Incubation mixtures were saponified with methanolic potassium hydroxide and extracted with hexane (3 × 1 ml) and concentrated to dryness providing the nonsaponifiable lipid fraction; radioactivity was determined by liquid scintillation counting. […]
# Ac24-SMT = assay: Time-dependent inactivation of Ac24-SMT (Kitz and Wilson plot); type: biochemical, Acanthamoeba castellanii
# Protocol: To show time-dependent inactivation, experiments were performed with a 100,000 g supernatant fraction containing the recombinant Ac24-SMT in two major steps. First, a preincubation experiment was established; to a 9 ml test tube containing DHL at the test concentrations (varied between 0 and 20 µM), 2.4 mg of total protein (ca. 160 µg SMT), 1.5 ml buffer, and a fixed concentration of SAM (100 µM) were added. The incubation was allowed to incubate for up to 20 min at 35°C. Second, at the time indicated, aliquots (20 µl) of the preincubation preparation were placed in a precooled (dry ice-ethanol) test tube to prevent catalysis. The frozen samples were then individually thawed and filtered three times with phosphate buffer to remove excess unbound inhibitor using Amicon ultracentrifugation filters. The remaining enzyme activity in each sample was determined by assaying each at saturating cycloartenol concentration (100 µM) and [methyl-^3H3] SAM (100 µM; 0.6 µC) under standard assay conditions for 1 h. The logarithmic percentage of remaining enzyme activity was plotted against the incubation time of the enzyme-inhibitor mixture to determine the half-life (T1/2) of inactivation. […] The point of intersection with the ordinate is the T1/2 at saturation from which the kinact can be calculated whereas the intercept along the X-axis gives the −1/Ki from which the Ki can be calculated.
smiles,measurement,setting,value
"CC(CCC=C1CC1)C1CC[C@@]2(C)C3=C(CCC12C)C1(C)CCC(O)C(C)(C)C1CC3 (some centres unmarked) [DHL, 26,27-dehydrolanosterol]","MAC (complete inhibition of growth, minimum amoebicidal concentration)",[1],15 µM
same,IC50,"[1]; Acanthamoeba castellanii, ATCC30010, Ac trophozoites",6 µM
same,activity / methyl product formation as substrate of Ac28-SMT,Ac28-SMT,not productively bound; also recorded: no activity was observed; also recorded: no methyl products were detected
same,partition ratio (kcat/kinact),"Ac24-SMT; C26 methyl monol product per inactivation event, 24-SMT",~1
same,kinact (maximum rate of inactivation) of Ac24-SMT,"Ac24-SMT; preincubation with SAM 100 µM, 35°C",~0.4 min⁻¹
